Measured values as given in patent US20200239530A1, “COMPOUNDS AND METHODS OF MODULATING PROTEIN DEGRADATION” (Vividion Therapeutics, Inc., priority 2017, published 2020).

Tests used:
Assay in all cases: Cysteine liganding, probe competition
Type in all cases: binding
[1] = target: T1, RRP8 Ribosomal RNA-processing protein 8 (Homo sapiens, UniProt O43159)
T1 construct: Cells were resuspended in cold PBS on ice and sonicated with a probe sonicator to achieve lysis; endogenous in cells
T1 sequence (O43159 1-456): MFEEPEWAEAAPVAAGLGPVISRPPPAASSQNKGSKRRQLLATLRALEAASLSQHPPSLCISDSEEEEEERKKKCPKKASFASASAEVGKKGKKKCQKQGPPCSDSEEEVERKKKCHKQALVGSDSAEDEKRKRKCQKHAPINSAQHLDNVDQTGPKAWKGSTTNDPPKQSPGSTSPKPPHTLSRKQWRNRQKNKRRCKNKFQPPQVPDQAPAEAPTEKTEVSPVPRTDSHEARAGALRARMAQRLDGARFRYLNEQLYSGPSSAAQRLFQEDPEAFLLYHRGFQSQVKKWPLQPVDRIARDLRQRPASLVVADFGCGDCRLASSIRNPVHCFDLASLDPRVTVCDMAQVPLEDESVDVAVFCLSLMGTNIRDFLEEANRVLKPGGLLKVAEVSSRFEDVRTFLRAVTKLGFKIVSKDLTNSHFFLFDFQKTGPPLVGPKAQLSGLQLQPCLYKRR
Procedure, shortened: (§1)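 Lysates from probe-sonicated cells in PBS (5 mg/ml proteome) were exposed to compound for 1 hr at 25° C, then labelled with desthiobiotin iodoacetamide probe (10 mM stock) for 1 hr at 25° C. Probe-tagged peptides were streptavidin-enriched after trypsin digestion.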

[2] = target: T2, TRIM65 Tripartite motif-containing protein 65 (Homo sapiens, UniProt Q6PJ69)
T2 construct: Cells were resuspended in cold PBS on ice and sonicated with a probe sonicator to achieve lysis; endogenous in cells
T2 sequence (Q6PJ69 1-517): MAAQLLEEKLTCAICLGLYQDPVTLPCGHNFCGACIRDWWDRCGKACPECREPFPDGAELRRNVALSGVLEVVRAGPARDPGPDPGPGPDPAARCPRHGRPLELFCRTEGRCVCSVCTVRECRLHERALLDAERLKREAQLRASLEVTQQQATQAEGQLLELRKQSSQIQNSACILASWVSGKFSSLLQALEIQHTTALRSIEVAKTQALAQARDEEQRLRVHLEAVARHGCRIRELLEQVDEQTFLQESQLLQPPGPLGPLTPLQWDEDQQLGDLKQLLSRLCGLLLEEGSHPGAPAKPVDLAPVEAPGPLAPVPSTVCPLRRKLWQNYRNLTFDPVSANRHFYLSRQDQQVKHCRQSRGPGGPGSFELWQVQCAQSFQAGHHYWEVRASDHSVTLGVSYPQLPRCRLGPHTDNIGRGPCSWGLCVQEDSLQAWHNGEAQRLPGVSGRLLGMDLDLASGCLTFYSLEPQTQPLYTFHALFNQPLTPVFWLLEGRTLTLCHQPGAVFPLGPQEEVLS
Procedure, shortened: as §1

[3] = target: T3, DECR2 Peroxisomal 2,4-dienoyl-CoA reductase (Homo sapiens, UniProt Q9NUI1); conditions: for Liganded: DECR2 Res# 120, uniprot Q9NUI1
T3 construct: 200 μL of lysate containing 5 mg/ml proteome was treated with 2 μL of 100× compound stock; endogenous in cells
T3 sequence (Q9NUI1 1-292): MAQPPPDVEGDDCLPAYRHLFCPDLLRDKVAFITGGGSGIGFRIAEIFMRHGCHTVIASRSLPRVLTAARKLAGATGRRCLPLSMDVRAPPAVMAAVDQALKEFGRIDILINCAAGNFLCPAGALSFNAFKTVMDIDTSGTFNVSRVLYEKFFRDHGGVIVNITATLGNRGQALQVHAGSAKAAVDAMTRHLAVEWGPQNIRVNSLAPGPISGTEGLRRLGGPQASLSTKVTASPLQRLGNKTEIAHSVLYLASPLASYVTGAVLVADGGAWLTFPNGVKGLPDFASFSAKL
Procedure, shortened: as §1

SMILES | Liganded ([1]; RRP8 Res# 451, uniprot O43159) | Liganded ([2]; TRIM65 Res# 320, uniprot Q6PJ69) | Liganded [3] | 100 Max ([1]; uniprot O43159) | 100 ave ([1]; uniprot O43159) | 500 Max ([1]; uniprot O43159) | 500 ave ([1]; uniprot O43159) | 100 Max ([2]; uniprot Q6PJ69) | 100 ave ([2]; uniprot Q6PJ69) | 500 Max ([2]; uniprot Q6PJ69) | 500 ave ([2]; uniprot Q6PJ69) | 100 Max ([3]; uniprot Q9NUI1) | 100 ave ([3]; uniprot Q9NUI1) | 500 Max ([3]; uniprot Q9NUI1) | 500 ave ([3]; uniprot Q9NUI1)
COc1ccc2c(c1)CCCN2C(=O)CCl [KB02] | YES | YES | YES |  |  |  |  |  |  |  |  |  |  |  | 
O=C(CCl)Nc1cc(C(F)(F)F)cc(C(F)(F)F)c1 [KBO3] |  |  | YES | 14.62 | −3.99 | 57.64 | 48.93 | 35.1 | 19.4 | 70.9 | 60.2 | 66.9 | 66.9 | 85 | 85
